Experimental data as given in patent US20230183239A1, “ECTONUCLEOTIDE PYROPHOSPHATASE-PHOSPHODIESTERASE 1 (ENPP-1) INHIBITORS AND USES THEREOF” (AbbVie Inc., priority 2017, published 2023).

Tests used:
Type in all cases: biochemical
ENPP1 [1] = molecular target: T1, ENPP1 (Homo sapiens, UniProt P22413); assay: ENPP1 enzyme assay with AMP-pNP substrate (hydrolysis of ATP analog); settings: AMP-pNP substrate (ATP analog); Ki from IC50 by Cheng-Prusoff; read-out: ENPP1 Inhibition _AMP-pNP: Ki
T1 sequence (P22413 1-925): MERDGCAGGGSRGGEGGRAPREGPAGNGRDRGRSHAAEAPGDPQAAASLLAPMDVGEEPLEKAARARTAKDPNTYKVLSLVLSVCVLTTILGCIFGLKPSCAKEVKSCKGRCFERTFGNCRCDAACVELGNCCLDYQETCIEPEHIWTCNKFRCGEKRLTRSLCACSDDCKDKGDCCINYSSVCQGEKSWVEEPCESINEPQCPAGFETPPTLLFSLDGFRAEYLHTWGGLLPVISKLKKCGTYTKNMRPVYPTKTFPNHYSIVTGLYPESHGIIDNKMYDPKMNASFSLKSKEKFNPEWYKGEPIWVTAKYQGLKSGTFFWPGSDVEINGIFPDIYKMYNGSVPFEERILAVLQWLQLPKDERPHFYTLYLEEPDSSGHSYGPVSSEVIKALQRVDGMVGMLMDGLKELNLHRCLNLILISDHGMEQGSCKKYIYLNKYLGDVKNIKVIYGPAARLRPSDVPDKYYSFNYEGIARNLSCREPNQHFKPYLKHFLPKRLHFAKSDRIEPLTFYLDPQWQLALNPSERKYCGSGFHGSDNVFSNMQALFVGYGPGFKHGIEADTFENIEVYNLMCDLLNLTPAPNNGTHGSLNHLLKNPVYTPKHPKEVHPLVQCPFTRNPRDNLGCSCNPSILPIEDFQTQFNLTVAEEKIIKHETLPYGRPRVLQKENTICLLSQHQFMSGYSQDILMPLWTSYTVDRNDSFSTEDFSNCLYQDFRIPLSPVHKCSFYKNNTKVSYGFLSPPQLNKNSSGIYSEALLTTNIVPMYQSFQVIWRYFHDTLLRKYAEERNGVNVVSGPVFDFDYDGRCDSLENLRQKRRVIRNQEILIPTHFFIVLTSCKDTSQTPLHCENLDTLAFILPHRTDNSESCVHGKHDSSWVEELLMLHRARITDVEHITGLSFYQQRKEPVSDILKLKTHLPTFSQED
Method in brief: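 Reactions ran 20 min at 37 °C, pH 8.5 Tris buffer with NaCl, CaCl2, ZnCl2, using 300 µM AMP-pNP and 60 ng/well recombinant human ENPP1; inhibitor range 10 µM–30 pM, duplicates.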

ENPP1 [2] = molecular target: T1, ENPP1; assay: Substrate selectivity ratio, inhibition of cGAMP hydrolysis versus ATP hydrolysis; settings: ratio Ki AMP-pNP / Ki cGAMP
Description: The selectivity ratios for inhibition of cGAMP hydrolysis versus ATP hydrolysis were then calculated as follows: […]

ENPP1 [3] = molecular target: T1, ENPP1; assay: Indirect quantitation of 2',3'-cGAMP hydrolysis (AMP-Glo Assay kit); settings: cGAMP substrate; Ki from IC50 by Cheng-Prusoff; read-out: ENPP1 Inhibition -cGAMP: Ki

Row | Ki (ENPP1 [1]) [nM] | Substrate Selectivity: Ki_AMP-pNP/Ki_cGAMP (ENPP1 [2]) | Ki (ENPP1 [3]) [nM] | Compound
1 | < 100 | 5.4 | < 100 | COc1cc2ncc(C3CC3)c(-c3ccc4c(c3)CN(S(N)(=O)=O)CC4)c2cc1OC [Example 283, 7-(3-cyclopropyl-6,7-dimethoxyquinolin-4-yl)-3,4-dihydroisoquinoline-2(1H)-sulfonamide]
2 | > 1000 | >97.7 | 100 to 1000 | COc1cc2c(-c3ccc(CNS(N)(=O)=O)cc3)c(C#N)cnc2cn1 [Example 235, N-(4-(3-cyano-6-methoxy-1,7-naphthyridin-4-yl)benzyl)sulfamide]
3 | > 1000 | > 14.4 | 100 to 1000 | COc1cc2ncnc(N3CCC(CCNS(N)(=O)=O)CC3)c2cc1OC(C)C [Example 205, N-(2-(1-(6-isopropoxy-7-methoxyquinazolin-4-yl)piperidin-4-yl)ethyl)sulfamide]
4 | 100 to 1000 | 54 | < 100 | COc1ccc2c(Oc3ccc(S(N)(=O)=O)cc3)c(C)cnc2c1 [Example 359, 4-((7-methoxy-3-methylquinolin-4-yl)oxy)benzene sulfonamide]
5 | < 100 | 13.9 | < 100 | COc1cc2nccc(N3CCC4(CC3)CCN(S(N)(=O)=O)C4)c2cc1OC [Example 160, 8-(6,7-dimethoxyquinolin-4-yl)-2,8-diazaspiro[4.5]decane-2-sulfonamide]
6 | 100 to 1000 | 10.6 | < 100 | N#Cc1cnc2ccccc2c1N1CCC2(CC1)CCN(S(N)(=O)=O)C2 [Example 167, 8-(3-cyanoquinolin-4-yl) -2,8-diazaspiro [4.5] decane-2-sulfonamide]
7 | > 1000 | >929 | < 100 | Cn1c(=O)[nH]c2ncnc(N3CCC(CCNS(N)(=O)=O)CC3)c21 [Example 141, N-(2-(1-(7-methyl-8-oxo-8,9-dihydro-7H-purin-6-yl)piperidin-4-yl)ethyl)sulfamide]
8 | 100 to 1000 | > 2.40 | 100 to 1000 | COc1ccc2c(Oc3cnc(NS(N)(=O)=O)nc3)ccnc2c1 [Example 224, N-(5-((7-methoxyquinolin-4-yl)oxy)pyrimidin-2-yl)sulfamide]
9 | 100 to 1000 | >31 | < 100 | COc1cc2ncc(C#N)c(-c3ccc(CNS(N)(=O)=O)cc3)c2cc1F [Example 395, N-(4-(3-cyano-6-fluoro-7-methoxyquinolin-4-yl)benzyl)sulfamide]
10 | > 1000 | >49.9 | 100 to 1000 | COc1ccc2c(Oc3ccc(NS(N)(=O)=O)cc3C(F)(F)F)ccnc2c1 [Example 317, N-(4-((7-methoxyquinolin-4-yl)oxy)-3-(trifluoromethyl)phenyl)sulfamide]
11 | > 1000 | >49.7 | < 100 | COc1cc2nccc(Oc3c(F)cc(NS(N)(=O)=O)cc3F)c2cc1OC [Example 197, N-(4-((6,7-dimethoxyquinolin-4-yl)oxy)-3,5-difluorophenyl)sulfamide]
12 | 100 to 1000 | 39.6 | < 100 | COc1cc2ncnc(N3CCC(CCNS(N)(=O)=O)CC3)c2cc1F [Example 206, N-(2-(1-(6-fluoro-7-methoxyquinazolin-4-yl)piperidin-4-yl)ethyl)sulfamide]
13 | > 1000 | > 89.3 | < 100 | NS(=O)(=O)N1CCC2(CCN(c3ncnc4cc(F)ccc34)CC2)C1 [Example 250, 8-(7-fluoroquinazolin-4-yl)-2,8-diazaspiro [4.5] decane-2-sulfonamide]
14 | 100 to 1000 | >42 | < 100 | COc1ccc2c(-c3ccc4c(c3F)CN(S(N)(=O)=O)CC4)ccnc2c1 [Example 410, 8-fluoro-7-(7-methoxyquinolin-4-yl)-3,4-dihydroisoquinoline-2(1H)-sulfamide]
15 | > 1000 | >173 | 100 to 1000 | N#Cc1cnc2cc(OC(F)F)ccc2c1-c1ccc2c(c1)CN(S(N)(=O)=O)CC2 [Example 262, 7-(3-cyano-7-(difluoromethoxy)quinolin-4-yl)-3,4-dihydroisoquinoline-2(1H)-sulfonamide]
16 | < 100 | 34 | < 100 | COc1ccc2c(-c3ccc(CNS(N)(=O)=O)s3)ccnc2c1 [Example 389, N-((5-(7-methoxyquinolin-4-yl)thiophen-2-yl)methyl)sulfamide]
17 | 100 to 1000 | 35.9 | < 100 | COc1cc2nccc(N3CCC(CCNS(N)(=O)=O)CC3)c2cc1F [Example 220, N-(2-(1-(6-fluoro-7-methoxyquinolin-4-yl)piperidin-4-yl)ethyl)sulfamide]
18 | > 1000 | >48.1 | < 100 | COc1cc2nccc(Oc3cc(F)c(NS(N)(=O)=O)cc3F)c2cc1OC [Example 258, N-(4-((6,7-dimethoxyquinolin-4-yl)oxy)-2,5-difluorophenyl)sulfamide]
19 | 100 to 1000 | 22.4 | < 100 | COc1cc2ncnc(N3CCc4cc(NS(N)(=O)=O)ccc4C3)c2cc1OC [Example 137, N-(2-(6,7-dimethoxyquinazolin-4-yl)-1,2,3,4-tetrahydroisoquinolin-6-yl)sulfamide]
20 | 100 to 1000 | 189.2 | < 100 | COc1cc2ncnc(-c3ccc(CNS(N)(=O)=O)cc3)c2cc1OC [Example 144, N-(4-(6,7-dimethoxyquinazolin-4-yl)benzyl)sulfamide]
21 | > 1000 | > 40.3 | < 100 | NS(=O)(=O)NCc1ccc(-c2ccnc3cc(F)ccc23)cc1 [Example 296, N-(4-(7-fluoroquinolin-4-yl)benzyl)sulfamide]
22 | > 1000 | >90.4 | 100 to 1000 | COc1ccc2c(-c3ccc(CN)cc3)c(C#N)cnc2c1 [Example 277, 4-(4-(aminomethyl)phenyl)-7-methoxyquinoline-3-carbonitrile]
23 | > 1000 | 36 | < 100 | COc1ccc2c(-c3ccc(CNS(N)(=O)=O)cn3)ccnc2c1 [Example 387, ((6-(7-methoxy quinolin-4-yl)pyridin-3-yl)methyl)sulfamide]
24 | > 1000 | >70 | < 100 | COc1ccc2c(-c3ccc(CNS(N)(=O)=O)cc3Cl)ccnc2c1 [Example 419, N-(3-chloro-4-(7-methoxyquinolin-4-yl)benzyl)sulfamide]
25 | > 1000 | >95 | < 100 | COc1cc(F)c2c(-c3ccc(CNS(N)(=O)=O)cc3)ccnc2c1 [Example 394, N-(4-(5-fluoro-7-methoxyquinolin-4-yl)benzyl)sulfamide]
26 | 100 to 1000 | 28.4 | < 100 | COc1ccc2c(Oc3ccc(NS(N)(=O)=O)c(C)c3)ccnc2c1 [Example 308, N-(4-((7-methoxyquinolin-4-yl)oxy)-2-methylphenyl)sulfamide]
27 | > 1000 | >38.8 | < 100 | COc1cc2nccc(-n3ccc4cc(NS(N)(=O)=O)ccc43)c2cc1OC [Example 313, N-(1-(6,7-dimethoxyquinolin-4-yl)-1H-indol-5-yl)sulfamide]
28 | > 1000 | >44 | < 100 | COc1ccc2c(-n3cnc(CNS(N)(=O)=O)c3)ccnc2c1 [Example 385, N-((1-(7-methoxyquinolin-4-yl)-1H-imidazol-4-yl)methyl)sulfamide]
29 | > 1000 | > 38.6 | < 100 | Cn1cnc2nccc(-c3ccc4c(c3)CN(S(N)(=O)=O)CC4)c21 [Example 193, 7-(1-methyl-1H-imidazo[4,5-b]pyridin-7-yl)-3,4-dihydroisoquinoline-2(1H)-sulfonamide]
